This passage reports minimal effective concentration and Activity results from ChEMBL document CHEMBL5120932, “Discovery and Optimization of Seven-Membered Lactam-Based Compounds to Phenocopy the Inhibition of the Aurora Kinase B” (ACS Med Chem Lett, 2022).

Assay [1] can be described thus: Induction of mitotic arrest in human RPE cells over expressing H2B-GFP-fused MYC assessed as minimum effective concentration for polyploidy measured after 24 to 72 hrs by fluorescence microscopy. It is filed as functional. Particulars: time 24-72 hrs, read-out: MEC.
Assay [2] in a line: Induction of mitotic arrest in human RPE cells over expressing H2B-GFP-fused MYC assessed as increase in polyploidy at 40 uM measured after 24 to 72 hrs by fluorescence microscopy. In kind it is functional. Particulars: time 24-72 hrs.
The subject of assay [3] is NCI-N87. The assay is described as follows: Cytotoxicity against human NCI-N87 cells assessed as reduction in cell proliferation at 10 uM measured after 3 days by MTT assay. In kind it is functional, cell-based. Particulars: time 3.0 day. In general terms: Tetrazolium assays rely on reduction of a dye to a coloured formazan, in cell work by metabolically active cells.

For assay [4], the system named is NCI-H23. The assay is described as follows: Cytotoxicity against human NCI-H23 cells assessed as reduction in cell proliferation at 10 uM measured after 3 days by MTT assay. In kind it is functional, cell-based. Particulars: time 3.0 day.
Assay [5] deals with DU-145. The assay is described as follows: Cytotoxicity against human DU-145 cells assessed as reduction in cell viability measured after 6 days by MTT assay. In kind it is functional, cell-based. Particulars: time 6.0 day.
Assay [6] relates to DU-145. The assay is described as follows: Cytotoxicity against human DU-145 cells assessed as reduction in cell proliferation at 10 uM measured after 3 days by MTT assay. It is filed as functional, cell-based. The note with it: time 3.0 day.
Assay [7] relates to MDA-MB-231. The assay is described as follows: Cytotoxicity against human MDA-MB-231 cells assessed as reduction in cell proliferation at 10 uM measured after 3 days by MTT assay. Particulars: time 3.0 day. In kind it is functional, cell-based.
Assay [8] deals with MDA-MB-231. The assay is described as follows: Cytotoxicity against human MDA-MB-231 cells assessed as reduction in cell viability measured after 6 days by MTT assay. In kind it is functional, cell-based. The note with it: time 6.0 day.
In assay [9] the test system is NCI-H596. The assay is described as follows: Cytotoxicity against human NCI-H596 cells assessed as reduction in cell viability measured after 6 days by MTT assay. It is filed as functional, cell-based. The note with it: time 6.0 day.
Assay [10] deals with A549. The assay is described as follows: Cytotoxicity against human A549 cells assessed as reduction in cell viability measured after 6 days by MTT assay. In kind it is functional, cell-based. The note with it: time 6.0 day.
In assay [11] the test system is NCI-H23. The assay is described as follows: Cytotoxicity against human NCI-H23 cells assessed as reduction in cell viability measured after 6 days by MTT assay. The note with it: time 6.0 day. It is filed as functional, cell-based.
Assay [12] concerns HCT-116. The assay is described as follows: Cytotoxicity against human HCT-116 cells assessed as reduction in cell proliferation at 10 uM measured after 3 days by MTT assay. Particulars: time 3.0 day. In kind it is functional, cell-based.
Assay [13] has as its system HCT-116. The assay is described as follows: Cytotoxicity against human HCT-116 cells assessed as reduction in cell viability measured after 6 days by MTT assay. The note with it: time 6.0 day. In kind it is functional, cell-based.
Assay [14] has as its system NCI-H460. The assay is described as follows: Cytotoxicity against human NCI-H460 cells assessed as reduction in cell viability measured after 6 days by MTT assay. It is filed as functional, cell-based. Particulars: time 6.0 day.
In assay [15] the test system is NCI-N87. The assay is described as follows: Cytotoxicity against human NCI-N87 cells assessed as reduction in cell viability measured after 6 days by MTT assay. It is filed as functional, cell-based. The note with it: time 6.0 day.
Assay [16] has as its system Calu-6. The assay is described as follows: Cytotoxicity against human Calu-6 cells assessed as reduction in cell viability measured after 6 days by MTT assay. It is filed as functional, cell-based. The note with it: time 6.0 day.

The source made the active and inactive calls. The rule behind the calls is not given here.

As for `COC(=O)C1=C(O)c2cc(F)ccc2N(Cc2ccc(C)c(F)c2)C(=O)C1`, the minimal effective concentration in [1] stood at 0.078 µM. The Activity in assay [2] stood at 40%.

Turning to `COC(=O)C1=C(O)c2ccccc2N(Cc2ccc(OC)cc2)C(=O)C1`, the outcome in assay [3], in assay [4], in assay [5], in assay [6], in [7] and in [8] was Active. Besides, the outcome in [9], in assay [10], in [11], in assay [12], in assay [13] and in assay [14] was Active. Further, the outcome in [15] and in assay [16] was Active. Besides, the minimal effective concentration in assay [1] turned out to be 0.156 µM. For the same molecule, the Activity in [2] was 80%.

In the case of `COc1ccc2c(c1)[C@]1(C[C@H]1c1ccc3c(/C=C/c4ccc(CN5C[C@@H](C)O[C@@H](C)C5)cc4)n[nH]c3c1)C(=O)N2`, the outcome in assay [5], in assay [8], in assay [9], in assay [10], in [11] and in assay [13] was Active. Besides, the outcome in assay [14], in assay [15] and in [16] was Active.

Take `COC(=O)C1=C(O)c2ccccc2N(Cc2ccc(C)cc2)C(=O)C1`: the result in assay [3], in assay [4], in assay [6], in assay [7] and in assay [12] was Active. Also, the minimal effective concentration in [1] stood at 0.625 µM. Further, in [2], the Activity was 10%.

On to `COC(=O)C1=C(O)c2ccccc2N(Cc2ccc(C)c(C)c2)C(=O)C1`, for which the minimal effective concentration in assay [1] amounted to 20 µM. For the same molecule, in assay [2], the Activity is 40%.

For `COc1cc(Nc2ncc3c(n2)-c2ccc(Cl)cc2C(c2c(F)cccc2OC)=NC3)ccc1C(=O)O`, the outcome in assay [5], in assay [8], in assay [9], in assay [10], in assay [11] and in assay [13] was Active. Further, the result in assay [14], in assay [15] and in assay [16] was Active.

Turning to `COC(=O)C1=C(O)c2ccccc2N(Cc2cccc(F)c2)C(=O)C1`, the minimal effective concentration in [1] is 40 µM. Besides, the Activity in assay [2] stood at 40%.

Take `COC(=O)C1=C(O)c2cc(OC)c(OC)cc2N(Cc2ccc(C)c(F)c2)C(=O)C1`: the minimal effective concentration in [1] amounted to 0.312 µM. Moreover, in assay [2], the Activity is 90%.

For the molecule `Cc1cc(Nc2cc(N3CCN(C)CC3)nc(Sc3ccc(NC(=O)C4CC4)cc3)n2)n[nH]1`, the result in [5], in [8], in [9], in assay [10], in assay [11] and in [13] was Active. The outcome in assay [14], in assay [15] and in assay [16] was Active.

`COC(=O)C1=C(O)c2ccccc2N(Cc2cccc(C)c2)C(=O)C1`: the minimal effective concentration in [1] stood at 40 µM. For the same molecule, the Activity in assay [2] came to 10%.

As to `COC(=O)C1=C(O)c2ccccc2N(Cc2ccc(C)c(Cl)c2)C(=O)C1`, the minimal effective concentration in assay [1] amounted to 5 µM. For the same molecule, the Activity in [2] amounted to 100%.

Turning to `COC(=O)C1=C(O)c2ccccc2N(Cc2ccc(F)cc2)C(=O)C1`, in assay [1], the minimal effective concentration was 40 µM. Besides, the Activity in assay [2] came out at 50%.

As to `COC(=O)C1=C(O)c2ccccc2N(Cc2ccccc2)C(=O)C1`, the minimal effective concentration in assay [1] was found to be 40 µM. Besides, the Activity in assay [2] is listed as 50%.

With `CC[C@@H]1C(=O)N(C)c2cnc(Nc3ccc(C(=O)NC4CCN(C)CC4)cc3OC)nc2N1C1CCCC1`, the result in assay [5], in assay [8], in assay [9], in [10], in assay [11] and in assay [13] was Active. For the same molecule, the outcome in [14], in assay [15] and in assay [16] was Active.

Consider `COC(=O)C1=C(O)c2ccccc2N(Cc2cccc(OC)c2)C(=O)C1`, for which the minimal effective concentration in [1] stood at 20 µM. Also, the Activity in [2] turned out to be 20%.

Consider `CCc1ccc(CN2C(=O)CC(C(=O)OC)=C(O)c3ccccc32)cc1`, for which the outcome in assay [3], in assay [4], in [5], in assay [6], in [7] and in assay [8] was Active. Besides, the outcome in [9], in assay [10], in [11], in [13], in [14] and in [15] was Active. Besides, the result in assay [16] was Active. In addition, the minimal effective concentration in assay [1] worked out at 0.078 µM. Further, in assay [2], the Activity is reported as 10%.

As to `COC(=O)C1=C(O)c2ccccc2N(Cc2ccc(C(F)(F)F)cc2)C(=O)C1`, in assay [1], the minimal effective concentration came out at 10 µM. For the same molecule, the Activity in assay [2] was found to be 30%.

Turning to `COC(=O)C1=C(O)c2ccccc2N(Cc2ccc(C(C)(C)C)cc2)C(=O)C1`, in assay [1], the minimal effective concentration is 40 µM. The Activity in assay [2] amounted to 5%.

Consider `Cc1csc(-c2nnc(Nc3ccc(Oc4ncccc4-c4ccnc(N)n4)cc3)c3ccccc23)c1`, for which the result in assay [5], in [8], in [9], in assay [10], in [11] and in assay [13] was Active. Besides, the outcome in assay [14], in assay [15] and in assay [16] was Active.

For `COC(=O)C1=C(O)c2ccccc2N(Cc2ccc(C#N)cc2)C(=O)C1`, the minimal effective concentration in assay [1] turned out to be 40 µM. For the same molecule, in assay [2], the Activity is reported as 10%.

Take `COC(=O)C1=C(O)c2ccccc2N(Cc2ccc(C)cc2C)C(=O)C1`: the minimal effective concentration in assay [1] is 1.25 µM. For the same molecule, the Activity in [2] was 100%.

In the case of `COC(=O)C1=C(O)c2scc(C)c2N(Cc2ccc(C)c(F)c2)C(=O)C1`, the result in assay [3], in [4], in [6], in assay [7] and in assay [12] was Active. In assay [1], the minimal effective concentration came to 0.312 µM. Further, the Activity in [2] is 100%.

Take `COC(=O)C1=C(O)c2ccccc2N(Cc2ccc(C(C)C)cc2)C(=O)C1`: the minimal effective concentration in [1] was 20 µM. Also, in assay [2], the Activity stood at 70%.
